A short description of data set [1]: In vitro metabolic stability in hepatic microsomes. Type of data set: in vitro ADME, rat. To be noted: for % Remaining after 10 min incubation with liver microsomes: NADPH, compound 5 μM; for % Remaining: parent molecule after 30 min incubation with rat liver microsomes; for metabolic stability (in words): hepatic microsomes.
Procedure: Compounds, each at 5 μM, were incubated for specified times at 37° C. with rat liver microsomes (1 mg protein/ml; Sigma-Aldrich, St. Louis, Mo.) in potassium phosphate buffer (100 mM) containing 1 mM NADPH. The mixture was then chilled on ice, and 0.5 ml of ice-cold ethyl acetate was added.
In the next data set the target is T1, UT-B (Mus musculus, UniProt Q8VHL0).
T1 sequence (Q8VHL0 1-384): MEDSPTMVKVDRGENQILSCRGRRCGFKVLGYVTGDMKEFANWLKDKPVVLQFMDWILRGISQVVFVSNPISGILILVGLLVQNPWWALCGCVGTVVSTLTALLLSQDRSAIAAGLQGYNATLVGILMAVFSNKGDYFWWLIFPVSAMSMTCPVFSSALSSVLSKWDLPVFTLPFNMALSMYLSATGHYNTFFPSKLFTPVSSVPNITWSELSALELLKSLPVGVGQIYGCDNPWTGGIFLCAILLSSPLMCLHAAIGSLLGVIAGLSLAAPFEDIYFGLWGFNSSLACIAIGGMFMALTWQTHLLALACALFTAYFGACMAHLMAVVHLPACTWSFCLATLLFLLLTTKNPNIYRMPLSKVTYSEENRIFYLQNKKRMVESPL
The data set is described as follows: Erythrocyte lysis assay of UT-B inhibition. Type of data set: cell-based. Further details: Screening was performed using mouse erythrocytes, which strongly express UT-B; endogenous in cells; host or cells: erythrocytes in whole blood of wild-type CD1 mice. To be noted: read-out: IC50. How it is done:
Screening was performed using mouse erythrocytes, which strongly express UT-B and are highly water permeable because the cells also express aquaporin-1 (AQP1) water channels. The screening method involved assay of erythrocyte lysis in response to a large, outwardly directed gradient of acetamide, a urea analog that is transported efficiently by UT-B. A large, outwardly directed gradient of acetamide causes transient cell swelling, but little cell lysis, because UT-B-facilitated acetamide efflux limits water influx (see FIG. 1A). UT-B inhibition prevents acetamide efflux, allowing unopposed cell swelling and consequent cell lysis, which was recorded by reduced near-infrared light absorption at 710 nm.
Primary screening was done using a collection of 100,000 diverse, drug-like compounds from commercial sources (ChemDiv, San Diego, Calif.; Asinex, Winston-Salem, N.C.). […] Vigorous mixing was achieved by repeated pipetting. Erythrocyte lysis was quantified by absorbance at 710 nm wavelength, made within 5 min after hypo-osmolar shock. […] For analysis of structure-activity relationships >900 commercially available analogs (ChemDiv and Asinex) were tested.

The test system of another data set is mice. The data set is described as follows: Urinary concentration in mice. The format is in vivo, mouse. As to the method:
In some studies, mice were placed on low, normal or […] diets (4%, 20% or 40% casein, Harlan Labs.) for 1 week prior study of dDAVP effects. […] Urea concentration was determined by a colorimetric enzymatic assay as described above. Measurements were also done in the absence of dDAVP in which urine was collected during free access to food and water. […]

Where [2] appears, read: Table 1, commercially available analogues, erythrocyte lysis assay.
[3] abbreviates: Table 2, synthesized inhibitors, red blood cell lysis assay (n = 3), single-site saturation model.

Where two headings read alike, the source gives them in different places.

As for `CCc1ccc(S(=O)(=O)c2nnn3c2nc(NCCOC)c2sccc23)cc1` [Compound 2by, {3-[4-ethyl-benzenesulfonyl]-thieno[2,3-e][1,2,3]triazolo[1,5-a]pyrimidin-5-yl}-2-methoxyethyl-amine], the “% Remaining after 10 min incubation with liver microsomes” value (from here on “% Remaining after 10 min incubation”) in data set [1] is recorded as less than 2%. Also, at UT-B (setting [2]), the concentration for half-maximal inhibition (IC50) is 334 nM.
Taken in the same sequence, the figures for `CCc1ccc(S(=O)(=O)c2nnn3c2nc(NCc2ccc(F)cc2)c2sccc23)cc1` [Compound 2ca, [3-(4-ethyl-benzenesulfonyl)-thieno[2,3-e][1,2,3]triazolo[1,5-a]pyrimidin-5-yl]-(4-fluoro-benzyl)-amine] were 41% and 384 nM.
For the compound `CCc1ccc(S(=O)(=O)c2nnn3c2nc(NCCCOC)c2sccc23)cc1` [Compound 2cb, {3-[4-ethyl-benzenesulfonyl]-thieno[2,3-e][1,2,3]triazolo[1,5-a]pyrimidin-5-yl}-3-methoxypropyl-amine], the “% Remaining after 10 min incubation” value in data set [1] was less than 2%. The IC50 on UT-B (erythrocyte lysis assay) was found to be 212 nM.
On to `CCc1ccc(S(=O)(=O)c2nnn3c2nc(NC(C)C)c2sccc23)cc1` [Compound 2ce], for which, in data set [1], the “% Remaining after 10 min incubation” value is recorded as 4%. Also, the IC50 on UT-B (setting [2]) worked out at 948 nM.
In the case of `CCc1ccc(S(=O)(=O)c2nnn3c2nc(NCCCOC(C)C)c2sccc23)cc1` [Compound 2cf, {3-[4-ethyl-benzenesulfonyl]-thieno[2,3-e][1,2,3]triazolo[1,5-a]pyrimidin-5-yl}-3-(1-methylethoxyl)propyl-amine], the “% Remaining after 10 min incubation” value in data set [1] was less than 2%. Also, the IC50 on UT-B (setting [2]) is 433 nM.
Consider `CCc1ccc(S(=O)(=O)c2nnn3c2nc(NCCCN2CCCC2=O)c2sccc23)cc1` [Compound 2cg], for which, in data set [1], the “% Remaining after 10 min incubation” value was determined as 2%. Also, the IC50 at UT-B (setting [2]) worked out at 1500 nM.
`Cc1ccc(C)c(S(=O)(=O)c2nnn3c2nc(NCCC(C)C)c2sccc23)c1` [Compound 2cj]: the “% Remaining after 10 min incubation” value in data set [1] turned out to be 61%. Also, the concentration for half-maximal inhibition (IC50) at UT-B (setting [2]) worked out at 1450 nM.
As for `CCCCNc1nc2c(S(=O)(=O)c3cc(C)ccc3C)nnn2c2ccsc12` [Compound 2cn], the “% Remaining after 10 min incubation” value in data set [1] is given as 57%. Besides, the IC50 at UT-B (setting [2]) worked out at 865 nM.
Taken in the same sequence, the figures for `COCCNc1nc2c(S(=O)(=O)c3cc(C)ccc3C)nnn2c2ccsc12` [Compound 2co, {3-[2,5-dimethyl-benzenesulfonyl]-thieno[2,3-e][1,2,3]triazolo[1,5-a]pyrimidin-5-yl}-2-methoxyethyl-amine] were 29% and 1190 nM.
With `COCCCNc1nc2c(S(=O)(=O)c3cc(C)ccc3C)nnn2c2ccsc12` [Compound 2cr, {3-[2,5-dimethyl-benzenesulfonyl]-thieno[2,3-e][1,2,3]triazolo[1,5-a]pyrimidin-5-yl}-3-methoxypropyl-amine], the “% Remaining after 10 min incubation” value in data set [1] is 26%. Moreover, the IC50 at UT-B (setting [2]) came to 1400 nM.
Regarding `COCCNc1nc2c(S(=O)(=O)c3ccc(Br)cc3)nnn2c2ccsc12` [Compound 2ct], the “% Remaining after 10 min incubation” value in data set [1] was 53%. Further, the IC50 on UT-B (setting [2]) was 959 nM.
The corresponding values for `CCCCNc1nc2c(S(=O)(=O)c3ccc(Br)cc3)nnn2c2ccsc12` [Compound 2cu] are 76% and 1900 nM.
In the case of `CC(C)c1ccc(S(=O)(=O)c2nnn3c2nc(NCc2cccs2)c2sccc23)cc1` [Compound 3a, [3-(4-Isopropylbenzenesulfonyl)-thieno[2,3-e][1,2,3]triazolo[1,5-a]pyrimidin-5-yl]-thiophen-2-ylmethyl-amine], the “% Remaining” value in data set [1] is less than 5%. Moreover, the figures for the IC50 at UT-B (setting [2]) and on UT-B (setting [3]) were 125 nM and 153 nM, respectively.
`CC(C)c1ccc(S(=O)(=O)c2nnn3c2nc(NCc2ccco2)c2sccc23)cc1` [Compound 3b, Furan-2-ylmethyl-[3-(4-isopropyl-benzenesulfonyl)-thieno[2,3-e][1,2,3]triazolo[1,5-a]pyrimidin-5-yl]-amine]: in data set [1], the “% Remaining” value is listed as more than 99%. Besides, at UT-B (setting [3]), the IC50 worked out at 16600 nM.
With `O=S(=O)(c1ccc(C(F)(F)F)cc1)c1nnn2c1nc(NCc1cccs1)c1sccc12` [Compound 3c, Thiophen-2-ylmethyl-[3-(4-trifluoromethyl-benzenesulfonyl)-thieno[2,3-e][1,2,3]triazolo[1,5-a]pyrimidin-5-yl]-amine], in data set [1], the “metabolic stability (in words)” value is recorded as “improved metabolic stability” and the “% Remaining” value stood at 99%. The IC50 on UT-B (setting [3]) is 537 nM.
In the case of `O=S(=O)(c1ccc(OC(F)(F)F)cc1)c1nnn2c1nc(NCc1cccs1)c1sccc12` [Compound 3d, Thiophen-2-ylmethyl-[3-(4-trifluoromethoxy-benzenesulfonyl)-thieno[2,3-e][1,2,3]triazolo[1,5-a]pyrimidin-5-yl]-amine], in data set [1], the “metabolic stability (in words)” value is listed as “improved metabolic stability” and the “% Remaining” value stood at 95%. Moreover, the half-inhibitory concentration (IC50) at UT-B (setting [3]) was found to be 1120 nM.
As for `COc1ccc(CNc2nc3c(S(=O)(=O)c4ccc(C(C)C)cc4)nnn3c3ccsc23)cc1` [Compound 3e, [3-(4-Isopropyl-benzenesulfonyl)-thieno[2,3-e][1,2,3]triazolo[1,5-a]pyrimidin-5-yl]-(4-methoxy-benzyl)-amine], the “% Remaining” value in data set [1] is listed as 7%. The IC50 on UT-B (setting [3]) was determined as 5290 nM.
As for `COc1ccc(S(=O)(=O)c2nnn3c2nc(NCc2cccs2)c2sccc23)cc1` [Compound 3f, [3-(4-Methoxy-benzenesulfonyl)-thieno[2,3-e][1,2,3]triazolo[1,5-a]pyrimidin-5-yl]-thiophen-2-ylmethyl-amine], the “% Remaining” value in data set [1] was 6%. Also, on UT-B (setting [3]), the half-maximal inhibitory concentration (IC50) came out at 104 nM.
Turning to `O=S(=O)(c1cccs1)c1nnn2c1nc(NCc1cccs1)c1sccc12` [Compound 3g, [3-(Thiophene-2-sulfonyl)-thieno[2,3-e][1,2,3]triazolo[1,5-a]pyrimidin-5-yl]-thiophen-2-ylmethyl-amine], the “% Remaining” value in data set [1] is reported as less than 5%. The IC50 at UT-B (setting [3]) was 196 nM.
Taken in the same sequence, the figures for `O=S(=O)(c1ccc(F)cc1)c1nnn2c1nc(NCc1cccs1)c1sccc12` [Compound 3h, [3-(4-Fluoro-benzenesulfonyl)-thieno[2,3-e][1,2,3]triazolo[1,5-a]pyrimidin-5-yl]-thiophen-2-ylmethyl-amine] were 27% and 468 nM.
For `O=S(=O)(c1ccc(Br)cc1)c1nnn2c1nc(NCc1cccs1)c1sccc12` [Compound 3i, [3-(4-Bromo-benzenesulfonyl)-thieno[2,3-e][1,2,3]triazolo[1,5-a]pyrimidin-5-yl]-thiophen-2-ylmethyl-amine], in data set [1], the “metabolic stability (in words)” value is “improved metabolic stability” and the “% Remaining” value is 60%. Moreover, on UT-B (setting [3]), the concentration for half-maximal inhibition (IC50) came to 32 nM.
Consider `CC(C)c1ccc(S(=O)(=O)c2nnn3c2nc(NCc2cccc4ccccc24)c2sccc23)cc1` [Compound 3j, [3-(4-Isopropyl-benzenesulfonyl)-thieno[2,3-e][1,2,3]triazolo[1,5-a]pyrimidin-5-yl]-naphthalen-1-ylmethyl-amine], for which the “% Remaining” value in data set [1] came out at 45%. Besides, the IC50 on UT-B (setting [3]) was more than 2500 nM.
Turning to “[1-deamino-8-D-arginine]-vasopressin [dDAVP, reference compound]”, the “urine osmolality after dDAVP” value with mice (control (formulation alone) mice) is recorded as more than 3 Osm/kg H2O. In the data set with mice (dDAVP 1 μg/kg intraperitoneal, over several hours), the “urine osmolality following dDAVP” value is more than 3000 mosm/kg H2O.

The term IC50 denotes the concentration that gives 50% inhibition.

For the origin of these results see patent US9303042B2, “Triazolothienopyrimidine compound inhibitors of urea transporters and methods of using inhibitors” (The Regents of the University of California, priority 2012, dated 2016).
